Drawing on article PMC7827406, “Structure–Activity Relationship (SAR) Study of Spautin-1 to Entail the Discovery of Novel NEK4 Inhibitors” (International Journal of Molecular Sciences, 2021), this text covers remaining activity for 4 compounds.

Test in all cases: biochemical
Common to all, as to parameters: Eurofins KinaseProfiler full panel at Km ATP, residual kinase activity (%) relative to DMSO

In one assay the target is FGFR2(h) (Homo sapiens, UniProt P21802). The essentials:
(§1)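 Compounds screened at 10 µM in radiometric kinase activity assays at Km ATP, reported as remaining kinase activity (%). A KINOMEscan competition-binding screen at 10 µM measured DNA-tagged kinase retained on immobilized active-site ligand by qPCR.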

The next assay deals with T1, MEKK3(h) (Homo sapiens, UniProt Q99759).
T1 construct: gene MAP3K3
T1 sequence (Q99759 1-626): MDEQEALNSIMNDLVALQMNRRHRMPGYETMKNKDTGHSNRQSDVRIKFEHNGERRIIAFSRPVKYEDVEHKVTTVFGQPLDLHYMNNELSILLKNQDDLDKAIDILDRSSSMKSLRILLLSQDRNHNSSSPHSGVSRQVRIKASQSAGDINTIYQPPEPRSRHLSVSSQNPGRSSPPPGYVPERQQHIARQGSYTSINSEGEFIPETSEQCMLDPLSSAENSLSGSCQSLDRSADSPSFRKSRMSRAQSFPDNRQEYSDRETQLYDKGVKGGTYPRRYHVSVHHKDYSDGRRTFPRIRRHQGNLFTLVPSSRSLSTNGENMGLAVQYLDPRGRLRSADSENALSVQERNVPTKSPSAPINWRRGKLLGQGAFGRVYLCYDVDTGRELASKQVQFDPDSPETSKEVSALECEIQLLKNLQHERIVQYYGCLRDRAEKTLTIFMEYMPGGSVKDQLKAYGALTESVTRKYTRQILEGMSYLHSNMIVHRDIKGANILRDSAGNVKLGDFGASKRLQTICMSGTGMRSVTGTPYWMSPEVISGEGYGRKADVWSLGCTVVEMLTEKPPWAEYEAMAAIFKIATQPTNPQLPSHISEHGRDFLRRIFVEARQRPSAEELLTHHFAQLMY
In short, it runs like this: as §1

The target in a further assay is T2, EphA8(h) (Homo sapiens, UniProt P29322).
T2 sequence (P29322 1-1005): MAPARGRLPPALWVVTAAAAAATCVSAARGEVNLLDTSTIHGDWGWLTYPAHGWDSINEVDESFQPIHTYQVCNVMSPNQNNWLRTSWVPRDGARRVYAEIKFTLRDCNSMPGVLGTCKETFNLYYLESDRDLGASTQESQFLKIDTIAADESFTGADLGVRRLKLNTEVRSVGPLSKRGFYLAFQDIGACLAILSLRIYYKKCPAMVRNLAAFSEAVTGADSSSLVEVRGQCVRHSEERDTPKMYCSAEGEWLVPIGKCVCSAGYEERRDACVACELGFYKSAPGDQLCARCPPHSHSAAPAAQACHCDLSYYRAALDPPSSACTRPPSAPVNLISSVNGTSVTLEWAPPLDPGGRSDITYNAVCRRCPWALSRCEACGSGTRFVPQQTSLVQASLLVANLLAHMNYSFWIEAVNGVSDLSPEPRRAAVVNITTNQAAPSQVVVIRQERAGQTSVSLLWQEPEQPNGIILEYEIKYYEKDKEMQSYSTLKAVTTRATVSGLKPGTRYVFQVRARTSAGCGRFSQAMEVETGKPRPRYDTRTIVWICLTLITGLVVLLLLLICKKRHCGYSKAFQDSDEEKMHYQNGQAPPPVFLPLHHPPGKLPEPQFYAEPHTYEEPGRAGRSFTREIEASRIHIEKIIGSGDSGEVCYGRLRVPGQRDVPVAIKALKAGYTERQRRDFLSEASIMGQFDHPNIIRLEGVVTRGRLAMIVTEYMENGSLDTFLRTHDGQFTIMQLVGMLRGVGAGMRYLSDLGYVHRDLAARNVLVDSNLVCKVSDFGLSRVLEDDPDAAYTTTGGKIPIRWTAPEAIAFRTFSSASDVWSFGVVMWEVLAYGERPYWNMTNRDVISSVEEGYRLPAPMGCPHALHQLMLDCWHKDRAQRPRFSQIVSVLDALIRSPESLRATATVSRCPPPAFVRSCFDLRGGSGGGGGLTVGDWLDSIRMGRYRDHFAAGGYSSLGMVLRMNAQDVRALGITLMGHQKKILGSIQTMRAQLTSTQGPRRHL
The essentials: as §1

For a further assay, the target named is T3, DMPK(h) (Homo sapiens, UniProt Q09013).
T3 sequence (Q09013 1-629): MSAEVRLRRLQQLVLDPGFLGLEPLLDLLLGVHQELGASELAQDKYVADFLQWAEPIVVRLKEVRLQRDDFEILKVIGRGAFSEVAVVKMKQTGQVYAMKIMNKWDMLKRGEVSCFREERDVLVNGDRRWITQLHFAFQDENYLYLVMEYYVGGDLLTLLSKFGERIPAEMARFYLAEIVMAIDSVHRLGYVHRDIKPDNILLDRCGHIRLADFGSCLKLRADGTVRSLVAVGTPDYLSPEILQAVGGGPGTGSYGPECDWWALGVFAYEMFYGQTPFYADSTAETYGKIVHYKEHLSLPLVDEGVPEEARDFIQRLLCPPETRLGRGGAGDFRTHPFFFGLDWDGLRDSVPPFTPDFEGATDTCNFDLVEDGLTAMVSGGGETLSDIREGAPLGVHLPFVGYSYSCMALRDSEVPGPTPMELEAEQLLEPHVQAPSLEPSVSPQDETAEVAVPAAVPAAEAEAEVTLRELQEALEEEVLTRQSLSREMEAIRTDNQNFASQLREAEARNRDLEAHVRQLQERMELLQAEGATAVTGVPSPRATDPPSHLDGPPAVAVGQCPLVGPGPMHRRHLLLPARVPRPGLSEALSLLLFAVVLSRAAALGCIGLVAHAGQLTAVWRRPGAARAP
In short, it runs like this:
as §1

Where [1] appears, read: read-out: Residual activity (%) Spautin-1 5aa.
Where [2] appears, read: read-out: Residual activity (%) 5as.
[3] abbreviates: read-out: Residual activity (%) 5at.
Setting [4] is: read-out: Residual activity (%) 5ay.

Read-outs that look alike come from different tables or passages of the source.

Sequence of FGFR2(h) (P21802 whole entry): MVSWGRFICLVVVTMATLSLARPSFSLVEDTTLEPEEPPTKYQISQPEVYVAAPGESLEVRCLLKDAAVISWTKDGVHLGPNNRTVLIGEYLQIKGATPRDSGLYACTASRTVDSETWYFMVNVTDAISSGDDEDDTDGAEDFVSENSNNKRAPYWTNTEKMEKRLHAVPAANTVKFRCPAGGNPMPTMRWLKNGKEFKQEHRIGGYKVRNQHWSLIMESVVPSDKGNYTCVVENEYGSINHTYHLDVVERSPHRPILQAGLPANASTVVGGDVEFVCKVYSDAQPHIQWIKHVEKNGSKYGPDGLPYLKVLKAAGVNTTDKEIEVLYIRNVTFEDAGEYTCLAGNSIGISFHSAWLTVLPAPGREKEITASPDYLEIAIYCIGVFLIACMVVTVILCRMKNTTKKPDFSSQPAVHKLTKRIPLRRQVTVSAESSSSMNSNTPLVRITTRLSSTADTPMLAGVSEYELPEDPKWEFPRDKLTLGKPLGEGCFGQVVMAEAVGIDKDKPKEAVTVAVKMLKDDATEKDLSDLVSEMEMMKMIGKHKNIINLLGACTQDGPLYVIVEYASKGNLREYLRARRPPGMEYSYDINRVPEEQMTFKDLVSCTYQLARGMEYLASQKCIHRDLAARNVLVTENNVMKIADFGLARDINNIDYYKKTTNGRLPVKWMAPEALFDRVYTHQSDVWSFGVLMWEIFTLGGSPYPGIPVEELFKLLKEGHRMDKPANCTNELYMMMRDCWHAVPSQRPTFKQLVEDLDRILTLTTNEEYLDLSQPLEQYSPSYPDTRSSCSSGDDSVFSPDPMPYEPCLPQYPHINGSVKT

In the case of `Fc1ccc(CNc2ncnc3ccc(F)cc23)cc1` [5aa, 6-Fluoro-N-(4-fluorobenzyl)-4-Quinazolinamine], the remaining activity at 10 µM on FGFR2(h) (setting [1]) amounted to 91%; at MEKK3(h) (setting [1]), 93%; on EphA8(h) (setting [1]), 87%; on DMPK(h) (setting [1]), 79%.
`Fc1ccc(CCNc2ncnc3ccc(F)cc23)cc1` [5as, 6-Fluoro-N-[2-(4-Fluorophenyl)Ethyl]-4-Quinazolinamine]: the remaining activity at 10 µM on FGFR2(h) (setting [2]) is 99%; at MEKK3(h) (setting [2]), 107%; at EphA8(h) (setting [2]) it was 88%; on DMPK(h) (setting [2]), 90%.
Turning to `Fc1ccc2ncnc(NCCc3ccc(Cl)cc3)c2c1` [5at, N-[2-(4-Chlorophenyl)Ethyl]-6-Fluoro-4-Quinazolinamine], the remaining activity at 10 µM at FGFR2(h) (setting [3]) is 84%; at MEKK3(h) (setting [3]), 98%; on EphA8(h) (setting [3]) it was 71%; on DMPK(h) (setting [3]) it was 80%.
Consider `COc1ccc2ncnc(Nc3cccc(F)c3)c2c1` [5ay, N-(3-Fluorophenyl)-6-Methoxy-4-Quinazolinamine], for which the remaining activity at 10 µM on FGFR2(h) (setting [4]) was 96%; at MEKK3(h) (setting [4]) it was 83%; at EphA8(h) (setting [4]), 84%; at DMPK(h) (setting [4]) it was 99%.
